From publication PMC11850616, “Nanomolar inhibitor of the galectin-8 N-terminal domain binds via a non-canonical cation-π interaction” (Communications Chemistry, 2025)

How the values were obtained:
Type in all cases: binding
[1] = target: T1, Gal-8N (galectin-8 N-terminal domain) (Homo sapiens, UniProt O00214); assay: competitive fluorescence polarisation assay, Gal-8N; design: key to Kd (Galectin-8N): n. s.: n.s. = non-soluble at tested concentration; n. b.: n.b. = non-binding up to the highest tested concentration of 1500 µM; conditions: ester compounds, competitive FP, highest tested concentration 1500 µM; for Kd: read-out: Kd (Galectin-8N)
T1 construct: made in house
T1 sequence (O00214 19-152 limits assumed): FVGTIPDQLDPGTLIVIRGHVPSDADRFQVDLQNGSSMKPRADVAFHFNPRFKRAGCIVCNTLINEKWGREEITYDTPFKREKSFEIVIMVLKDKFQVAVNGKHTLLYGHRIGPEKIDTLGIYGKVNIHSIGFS
Experimental: (§1) Human galectins-1, -3, and -8N were expressed and purified as described previously[8],[23],[24]. Competitive fluorescence polarization assays were performed with a PHERAstar FS plate reader with software PHERAstar Mars version 2.10 R3 (BMG, Offenburg, Germany) and Tecan Spark multimode microplate reader (Tecan Trading AG, Switzerland), where a fluorescence anisotropy of fluorescent-tagged probes was measured by excitation at 485 nm and emission at 520 nm. Experiments were performed at 20 °C with Gal-1 at 0.5 µM, Gal-3 at 0.2 µM, and Gal-8N at 0.4 µM. Fluorescent probes used for experiments were 3,3′-dideoxy-3-[4-(fluorescein-5-yl-carbonylaminomethyl)-1H-1,2,3-triazol-1-yl]-3′-(3,5-di-methoxybenzamido)-1,1′-sulfanediyl-di-β-D-galactopyranoside at 0.02 µM for Gal-1 and -3 and 2-(fluorescein-5-yl-carbonylamino)ethyl β-D-galactopyranosyl(1-4)-2-acetamido-2-deoxy-β-D-glucopyranosyl(1–3)-β-D-galactopyranosyl(1–4)-β-D-glucopyranoside at 0.1 µM for Gal-8N in each well. Compounds were first dissolved in pure DMSO at 20 mM concentration and later diluted in 5% DMSO in PBS solution to 5-7 different concentrations. Each concentration was tested in duplicate. The highest inhibitor concentrations tested were 1.5 mM. The average values of Kd and SEM (standard error mean) were calculated from 4 to 8 duplicate measurements, showing 10–90% inhibition.

Gal-3 = target: T2, Gal-3 (Homo sapiens, UniProt P17931); assay: competitive fluorescence polarisation assay, Gal-3; design: key to Kd (Galectin-3): n. s.: n.s. = non-soluble at tested concentration; n. b.: n.b. = non-binding up to the highest tested concentration of 1500 µM; conditions: ester compounds, competitive FP, highest tested concentration 1500 µM; for Kd: read-out: Kd (Galectin-3)
T2 construct: made in house
T2 sequence (P17931 whole entry): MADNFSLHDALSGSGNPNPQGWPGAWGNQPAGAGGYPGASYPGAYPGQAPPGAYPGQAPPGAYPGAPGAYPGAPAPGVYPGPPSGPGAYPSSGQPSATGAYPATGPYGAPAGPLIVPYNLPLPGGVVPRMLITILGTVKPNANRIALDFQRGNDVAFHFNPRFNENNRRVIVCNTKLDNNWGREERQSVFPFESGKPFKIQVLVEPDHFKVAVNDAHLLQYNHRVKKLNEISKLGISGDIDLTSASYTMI
Experimental: as §1

Gal-1 = target: T3, Gal-1 (Homo sapiens, UniProt P09382); assay: competitive fluorescence polarisation assay, Gal-1; conditions: competitive FP, mean ± SEM of n = 4 to 8, 20 °C
T3 construct: made in house
T3 sequence (P09382 whole entry): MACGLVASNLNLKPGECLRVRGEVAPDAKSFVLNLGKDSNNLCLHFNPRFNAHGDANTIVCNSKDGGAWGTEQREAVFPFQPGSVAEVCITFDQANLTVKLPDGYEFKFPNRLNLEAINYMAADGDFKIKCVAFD
Experimental: as §1

Row | SMILES | Kd (Galectin-8N) [1] | Kd (Galectin-3) (Gal-3) | Kd [1] | Kd (Gal-3) | Kd (Gal-1)
1 | C#CCO[C@@H]1[C@@H](OCc2nc3ccc(C(=O)OC)cc3n2C)[C@@H](O)[C@@H](CO)O[C@@H]1Sc1ccc(Cl)c(Cl)c1 [Compound 10] | – | n. s. | 275 ± 5 µM | – | –
2 | COC(=O)c1ccc2nc(CO[C@H]3[C@@H](O)[C@@H](CO)O[C@H](Sc4ccc(Cl)c(Cl)c4)[C@@H]3OCC3CCCCC3)n(C)c2c1 [Compound 18] | n. s. | n. s. | – | – | –
3 | COC(=O)c1ccc2nc(CO[C@H]3[C@@H](O)[C@@H](CO)O[C@H](Sc4ccc(Cl)c(Cl)c4)[C@@H]3OCC3CC3)n(C)c2c1 [Compound 21] | – | n. s. | > 1500 µM | – | –
4 | COC(=O)c1ccc2nc(CO[C@H]3[C@@H](O)[C@@H](CO)O[C@H](Sc4ccc(Cl)c(Cl)c4)[C@@H]3OCC3CCC3)n(C)c2c1 [Compound 24] | n. s. | n. s. | – | – | –
5 | COC(=O)c1ccc2nc(CO[C@H]3[C@@H](O)[C@@H](CO)O[C@H](Sc4ccc(Cl)c(Cl)c4)[C@@H]3OCC(=O)OC(C)(C)C)n(C)c2c1 [Compound 27] | – | n. s. | 201.7 ± 1.3 µM | – | –
6 | COC(=O)c1ccc2nc(CO[C@H]3[C@@H](O)[C@@H](CO)O[C@H](Sc4ccc(Cl)c(Cl)c4)[C@@H]3OCC(=O)O)n(C)c2c1 [Compound 28] | – | – | 7.7 ± 0.3 µM | 8.5 ± 1.5 µM | 44.7 ± 4.9 µM
7 | COC(=O)c1ccc2nc(CO[C@H]3[C@@H](O)[C@@H](CO)O[C@H](Sc4ccc(Cl)c(Cl)c4)[C@@H]3OC)n(C)c2c1 [Compound 31] | n. s. | – | – | 109 ± 31 µM | –

Continued, values first:

Row | Kd (Galectin-8N) [1] | Kd (Galectin-3) (Gal-3) | Kd [1] | Kd (Gal-3) | Kd (Gal-1) | SMILES
8 | n. s. | n. s. | – | – | – | COC(=O)c1ccc2nc(CO[C@H]3[C@@H](O)[C@@H](CO)O[C@H](Sc4ccc(Cl)c(Cl)c4)[C@@H]3OCc3ccccc3)n(C)c2c1 [Compound 7a]
9 | n. s. | n. s. | – | – | – | COC(=O)c1ccc2nc(CO[C@H]3[C@@H](O)[C@@H](CO)O[C@H](Sc4ccc(Cl)c(Cl)c4)[C@@H]3OCc3cccc(C)c3)n(C)c2c1 [Compound 7b]
10 | n. s. | n. s. | – | – | – | COC(=O)c1ccc2nc(CO[C@H]3[C@@H](O)[C@@H](CO)O[C@H](Sc4ccc(Cl)c(Cl)c4)[C@@H]3OCc3ccc(C)cc3)n(C)c2c1 [Compound 7c]
11 | n. s. | n. s. | – | – | – | COC(=O)c1ccc2nc(CO[C@H]3[C@@H](O)[C@@H](CO)O[C@H](Sc4ccc(Cl)c(Cl)c4)[C@@H]3OCc3ccc(F)cc3)n(C)c2c1 [Compound 7d]
12 | – | – | > 1500 µM | > 1500 µM | – | COC(=O)c1ccc2nc(CO[C@H]3[C@@H](O)[C@@H](CO)O[C@H](Sc4ccc(Cl)c(Cl)c4)[C@@H]3OCc3ccc(Cl)c(Cl)c3)n(C)c2c1 [Compound 7e]
13 | – | – | > 1500 µM | > 1500 µM | – | COC(=O)c1ccc2nc(CO[C@H]3[C@@H](O)[C@@H](CO)O[C@H](Sc4ccc(Cl)c(Cl)c4)[C@@H]3OCc3cccc(Cl)c3)n(C)c2c1 [Compound 7f]
